The text below walks through data of ChEMBL document CHEMBL4017521, “Direct NMR Probing of Hydration Shells of Protein Ligand Interfaces and Its Application to Drug Design” (J Med Chem, 2017).

Active and inactive are the calls of the source. The calls are words filed in the database; no cut-off is given here.

This test deals with Bromodomain-containing protein 4 (Homo sapiens, UniProt O60885). Put plainly: Inhibition of recombinant human N-terminal His6-tagged Brd4-BD1 expressed in Escherichia coli BL21(DE3) by LOGSY NMR titration method.

Consider `COc1ccc(-c2ccc3nnc(C)n3n2)cc1OC`, for which the IC50 (commonly the concentration that inhibits the measured activity by half) came to 24 µM.
Same read-out and setting: under `Cc1nnc2ccc(-c3cnn(C)c3Oc3ccccc3)nn12` stands 2 µM.
As to `Cc1nnc2ccc(N(C)Cc3ccc(F)c(F)c3)nn12`, the inhibition entry is “Active”.
As for `CNc1cc(-c2ccccc2)nn2c(C)nnc12`, the inhibition result was “Active”.
As to `CNc1cc(N(C)Cc2ccccc2)nn2c(C)nnc12`, the inhibition entry is “Active”.
Regarding `Cc1nnc2ccc(-c3ccccc3)nn12`, the inhibition result is “Active”.
For the compound `Cc1nnc2c(N)cc(-c3cnn(C)c3Oc3ccccc3)nn12`, the inhibition result was “Active”.
